Experimental data from patent US11434242B2, “Dopamine-b-hydroxylase inhibitors” (BIAL-PORTELA & Cª, S.A., priority 2017, dated 2022).

Target: T1, Dopamine beta hydroxylase (Homo sapiens, UniProt P09172)
T1 construct: 125 μl of plasma; tissue Instituto Português do Sangue Transplantação; host or cells: human plasma from healthy donors
T1 sequence (P09172 40-617 limits assumed): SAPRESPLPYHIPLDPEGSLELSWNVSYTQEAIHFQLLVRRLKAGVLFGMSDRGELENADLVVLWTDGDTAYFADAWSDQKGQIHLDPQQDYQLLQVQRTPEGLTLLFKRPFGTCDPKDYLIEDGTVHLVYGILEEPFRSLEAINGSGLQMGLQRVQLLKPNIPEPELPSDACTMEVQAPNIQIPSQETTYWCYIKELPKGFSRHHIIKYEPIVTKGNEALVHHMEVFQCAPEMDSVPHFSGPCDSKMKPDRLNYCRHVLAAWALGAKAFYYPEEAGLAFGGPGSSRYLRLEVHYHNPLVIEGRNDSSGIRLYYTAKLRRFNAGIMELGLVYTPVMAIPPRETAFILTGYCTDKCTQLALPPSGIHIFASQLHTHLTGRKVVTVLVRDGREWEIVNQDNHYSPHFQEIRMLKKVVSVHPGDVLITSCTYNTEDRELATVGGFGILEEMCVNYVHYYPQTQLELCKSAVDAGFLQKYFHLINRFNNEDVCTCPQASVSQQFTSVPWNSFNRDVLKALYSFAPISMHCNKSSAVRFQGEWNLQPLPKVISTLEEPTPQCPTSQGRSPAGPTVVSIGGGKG
Assay: Dopamine beta hydroxylase activity in human plasma
Type: biochemical
Details: for Plasma (0.01 μM), activity in % of control: inhibitor 0.01 μM; for Plasma (0.1 μM), activity in % of control: inhibitor 0.1 μM; for Plasma (1 μM), activity in % of control: inhibitor 1 μM
In short: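 Octopamine production from tyramine over 45 min at 37° C, measured photometrically at 330 nm after SCX extraction and periodate oxidation against an octopamine standard curve, indicates plasma DβH activity. Compounds tested at final 10, 100 and 1000 nM in human plasma, pH 5.0 cofactor buffer, 10 min preincubation; results as % of control.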

SMILES	Plasma (0.01 μM), activity in % of control	Plasma (0.1 μM), activity in % of control	Plasma (1 μM), activity in % of control
Cn1c(CC(=O)N[C@H]2CCOC2)c2n(c1=S)C[C@@H](c1c(F)c(F)cc(F)c1F)C2 [Example 295, 2-((R)-2-methyl-3-thioxo-6-(2,3,5,6-tetrafluorophenyl)-2,5,6,7-tetrahydro-3H-pyrrolo[1,2-c]imidazol-1-yl)-N—((S)-tetrahydrofuran-3-yl)acetamide]	95.6 % of control	71.5 % of control	
O=C(Cc1[nH]c(=S)n2c1C[C@@H](c1c(F)ccc(Cl)c1F)C2)N[C@@H]1CCCOC1 [Example 401, 2-((S)-6-(3-chloro-2,6-difluorophenyl)-3-thioxo-2,5,6,7-tetrahydro-3H-pyrrolo[1,2-c]imidazol-1-yl)-N—((R)-tetrahydro-2H-pyran-3-yl)acetamide]	66.5 % of control	35.2 % of control	
O=C(Cc1[nH]c(=S)n2c1C[C@H](c1c(F)cccc1F)C2)N[C@@H]1CCOC1 [Example 77, 2-((R)-6-(2,6-difluorophenyl)-3-thioxo-2,5,6,7-tetrahydro-3H-pyrrolo[1,2-c]imidazol-1-yl)-N—((R)-tetrahydrofuran-3-yl)acetamide]		87.2 % of control	38.9 % of control
[2H]C([2H])([2H])n1c(CC(=O)NC2CCOCC2)c2n(c1=S)C[C@H](c1c(F)ccc(Cl)c1F)C2 [Example 469, (S)-2-(6-(3-chloro-2,6-difluorophenyl)-2-(methyl-d)-3-thioxo-2,5,6,7-tetrahydro-3H-pyrrolo[1,2-c]imidazol-1-yl)-N-(tetrahydro-2H-pyran-4-yl)acetamide]	33.7 % of control	1.5 % of control	
Cn1c(CC(=O)NC2CCOCC2)c2n(c1=S)C[C@@H](c1c(F)ccc(F)c1F)C2 [Example 299, (R)-2-(2-methyl-6-(2,3,6-trifluorophenyl)-3-thioxo-2,5,6,7-tetrahydro-3H-pyrrolo[1,2-c]imidazol-1-yl)-N-(tetrahydro-2H-pyran-4-yl)acetamide]	84.3 % of control	48.4 % of control	
O=C(Cc1[nH]c(=S)n2c1C[C@H](c1c(F)ccc(Br)c1F)C2)NC1CCS(=O)(=O)CC1 [Example 130, (R)-2-(6-(3-bromo-2,6-difluorophenyl)-3-thioxo-2,5,6,7-tetrahydro-3H-pyrrolo[1,2-c]imidazol-1-yl)-N-(1,1-dioxidotetrahydro-2H-thiopyran-4-yl)acetamide]	55.7 % of control	8.4 % of control	
Cn1c(CCO)c2n(c1=S)C[C@H](c1c(F)ccc(Br)c1F)C2 [Example 456, (S)-6-(3-bromo-2,6-difluorophenyl)-1-(2-hydroxyethyl)-2-methyl-2,5,6,7-tetrahydro-3H-pyrrolo[1,2-c]imidazole-3-thione]	86.8 % of control	20.2 % of control	
N#CCNC(=O)Cc1[nH]c(=S)n2c1C[C@H](c1c(F)c(F)cc(F)c1F)C2 [Example 27, (R)—N-(cyanomethyl)-2-(6-(2,3,5,6-tetrafluorophenyl)-3-thioxo-2,5,6,7-tetrahydro-3H-pyrrolo[1,2-c]imidazol-1-yl)acetamide]		51.6 % of control	7.6 % of control
Cn1c(CC(=O)N[C@@H]2CCOC2)c2n(c1=S)C[C@@H](c1c(F)ccc(F)c1F)C2 [Example 244, 2-((R)-2-methyl-3-thioxo-6-(2,3,6-trifluorophenyl)-2,5,6,7-tetrahydro-3H-pyrrolo[1,2-c]imidazol-1-yl)-N—((R)-tetrahydrofuran-3-yl)acetamide]	83.6 % of control	32.9 % of control	
CN(C(=O)Cc1[nH]c(=S)n2c1C[C@H](c1c(F)c(F)cc(F)c1F)C2)C1CCOCC1 [Example 378, (R)—N-methyl-2-(6-(2,3,5,6-tetrafluorophenyl)-3-thioxo-2,5,6,7-tetrahydro-3H-pyrrolo[1,2-c]imidazol-1-yl)-N-(tetrahydro-2H-pyran-4-yl)acetamide]	110.2 % of control	52.6 % of control	
Cn1c(CC(=O)NCC#N)c2n(c1=S)C[C@H](c1c(F)ccc(Br)c1F)C2 [Example 253, (S)-2-(6-(3-bromo-2,6-difluorophenyl)-2-methyl-3-thioxo-2,5,6,7-tetrahydro-3H-pyrrolo[1,2-c]imidazol-1-yl)-N-(cyanomethyl)acetamide]	63.4 % of control	24.5 % of control	
Cn1c(CC(=O)Nc2ncco2)c2n(c1=S)C[C@H](c1c(F)ccc(Cl)c1F)C2 [Example 317, (S)-2-(6-(3-chloro-2,6-difluorophenyl)-2-methyl-3-thioxo-2,5,6,7-tetrahydro-3H-pyrrolo[1,2-c]imidazol-1-yl)-N-(oxazol-2-yl)acetamide]	45.6 % of control	5.3 % of control	

Now from value to molecule:

Plasma (0.01 μM), activity in % of control	Plasma (0.1 μM), activity in % of control	Plasma (1 μM), activity in % of control	SMILES
88.2 % of control	29.5 % of control		O=S1(=O)CCC(NCCc2[nH]c(=S)n3c2C[C@H](c2c(F)ccc(Br)c2F)C3)CC1 [Example 178, (R)-6-(3-bromo-2,6-difluorophenyl)-1-(2-((1,1-dioxidotetrahydro-2H-thiopyran-4-yl)amino)ethyl)-2,5,6,7-tetrahydro-3H-pyrrolo[1,2-c]imidazole-3-thione]
88.5 % of control	64.7 % of control		O=C(Cc1[nH]c(=S)n2c1C[C@H](c1c(F)ccc(F)c1F)C2)N[C@H]1CCOC1 [Example 370, 2-((R)-6-(2,3,6-trifluorophenyl)-3-thioxo-2,5,6,7-tetrahydro-3H-pyrrolo[1,2-c]imidazol-1-yl)-N—((S)-tetrahydrofuran-3-yl)acetamide]
	75.9 % of control	19.1 % of control	COCCNC(=O)Cc1[nH]c(=S)n2c1C[C@H](c1c(F)c(F)cc(F)c1F)C2 [Example 73, (R)—N-(2-methoxyethyl)-2-(6-(2,3,5,6-tetrafluorophenyl)-3-thioxo-2,5,6,7-tetrahydro-3H-pyrrolo[1,2-c]imidazol-1-yl)acetamide]
65.8 % of control	13.1 % of control		CN(C(=O)Cc1c2n(c(=S)n1C)C[C@@]1(c3cc(Cl)ccc3F)C[C@@H]21)[C@@H]1CCOC1 [Example 468, 2-((5aS,6aR)-5a-(5-chloro-2-fluorophenyl)-2-methyl-3-thioxo-2,3,5,5a,6,6a-hexahydrocyclopropa[3,4]pyrrolo[1,2-c]imidazol-1-yl)-N-methyl-N—((R)-tetrahydrofuran-3-yl)acetamide]
68.1 % of control	19.3 % of control		Cn1c(CC(=O)N[C@H]2CCOC2)c2n(c1=S)C[C@H](c1c(F)ccc(Cl)c1F)C2 [Example 385, 2-((S)-6-(3-chloro-2,6-difluorophenyl)-2-methyl-3-thioxo-2,5,6,7-tetrahydro-3H-pyrrolo[1,2-c]imidazol-1-yl)-N—((S)-tetrahydrofuran-3-yl)acetamide]
	66.4 % of control	10.9 % of control	CCOC(=O)Cc1[nH]c(=S)n2c1C[C@@H](c1cc(Br)ccc1F)C2 [Example 62, Ethyl (S)-2-(6-(5-bromo-2-fluorophenyl)-3-thioxo-2,5,6,7-tetrahydro-3H-pyrrolo[1,2-c]imidazol-1-yl)acetate]
60.1 % of control	3.9 % of control		Cn1c(CC(=O)NC2CCS(=O)(=O)CC2)c2n(c1=S)C[C@@H](c1c(F)ccc(F)c1F)C2 [Example 239, (R)—N-(1,1-dioxidotetrahydro-2H-thiopyran-4-yl)-2-(2-methyl-3-thioxo-6-(2,3,6-trifluorophenyl)-2,5,6,7-tetrahydro-3H-pyrrolo[1,2-c]imidazol-1-yl)acetamide]
102.0 % of control	56.8 % of control		O=C(Cc1[nH]c(=S)n2c1C[C@H](c1c(F)c(F)cc(F)c1F)C2)NC1CCOCC1 [Example 377, (R)—N-(tetrahydro-2H-pyran-4-yl)-2-(3-thioxo-6-(2,3,5,6-tetrafluorophenyl)-2,5,6,7-tetrahydro-3H-pyrrolo[1,2-c]imidazol-1-yl)acetamide]
	46.9 % of control	5.3 % of control	NC(=O)Cc1[nH]c(=S)n2c1C[C@@H](c1c(F)ccc(Cl)c1F)C2 [Example 108, (S)-2-(6-(3-chloro-2,6-difluorophenyl)-3-thioxo-2,5,6,7-tetrahydro-3H-pyrrolo[1,2-c]imidazol-1-yl)acetamide]
